# Results from patent publication US8946282B2, “Indolin-2-one derivatives as protein kinase inhibitors” (Annji Pharmaceutical Co., Ltd., priority 2012, dated 2015).
# What was measured:
# [1] = target: aurora B (Homo sapiens, UniProt Q96GD4); assay: radioisotope-based P81 filter-binding assay, aurora B kinase; type: biochemical; conditions: for IC50: averaged from two independent dose-response curves, read-out: Enzyme assay IC50 Aur B; for inhibition at 1 µM: compound at 1.0 μM, mean values (n=2), read-out: percent inhibition of enzyme catalytic activity, Aur B (numbers in parentheses)
# Description: (§1) Compounds of formula (I)-(IV) were evaluated for abilities in inhibiting protein kinases aurora B and FLT-3 activity using radioisotope-based P81 filter-binding assay (Table 1).
# [2] = target: T1, FLT-3 (Homo sapiens, UniProt P36888); assay: radioisotope-based P81 filter-binding assay, FLT-3 kinase; type: biochemical; conditions: for IC50: averaged from two independent dose-response curves, read-out: Enzyme assay IC50 FLT-3
# T1 sequence (P36888 27-993): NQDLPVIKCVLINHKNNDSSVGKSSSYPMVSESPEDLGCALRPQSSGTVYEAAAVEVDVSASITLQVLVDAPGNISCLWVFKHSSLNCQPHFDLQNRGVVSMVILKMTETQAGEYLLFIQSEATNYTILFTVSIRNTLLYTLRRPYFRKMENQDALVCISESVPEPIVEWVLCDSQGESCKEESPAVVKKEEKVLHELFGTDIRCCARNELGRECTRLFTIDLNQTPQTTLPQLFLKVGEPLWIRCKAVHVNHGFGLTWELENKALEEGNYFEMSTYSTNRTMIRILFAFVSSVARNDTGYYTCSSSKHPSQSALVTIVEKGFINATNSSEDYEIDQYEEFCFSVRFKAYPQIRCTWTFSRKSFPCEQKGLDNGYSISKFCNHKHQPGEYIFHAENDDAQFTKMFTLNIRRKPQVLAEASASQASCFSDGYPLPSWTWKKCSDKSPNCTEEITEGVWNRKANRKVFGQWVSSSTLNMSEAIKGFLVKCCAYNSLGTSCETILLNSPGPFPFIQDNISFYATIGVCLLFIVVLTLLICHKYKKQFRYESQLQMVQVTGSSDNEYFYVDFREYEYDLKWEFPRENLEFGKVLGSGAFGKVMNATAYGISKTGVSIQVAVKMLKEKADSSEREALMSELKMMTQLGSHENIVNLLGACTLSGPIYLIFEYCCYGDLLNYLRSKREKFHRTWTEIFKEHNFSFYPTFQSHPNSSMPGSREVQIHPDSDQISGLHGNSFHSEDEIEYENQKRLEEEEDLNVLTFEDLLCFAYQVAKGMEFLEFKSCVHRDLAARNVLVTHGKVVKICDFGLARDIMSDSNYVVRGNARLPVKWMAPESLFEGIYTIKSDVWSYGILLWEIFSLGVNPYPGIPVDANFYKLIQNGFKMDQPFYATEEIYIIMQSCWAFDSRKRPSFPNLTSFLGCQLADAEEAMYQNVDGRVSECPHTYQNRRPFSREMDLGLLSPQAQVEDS
# Description: as §1
# [3] = test system: A549 human lung carcinoma cells; assay: anti-proliferation, SRB colorimetric assay, A549; type: cell-based; conditions: concentration required for 50% growth inhibition, read-out: IC50 (μM, mean ± S.D.)
# [4] = test system: MV4-11 human acute myelomonocytic leukemia cells; assay: anti-proliferation, SRB colorimetric assay, MV4-11; type: cell-based; conditions: concentration required for 50% growth inhibition
# Description: HCT116 human colorectal carcinoma cells (Table 3), HepG2 human hepatocellular carcinoma cells (Table 4), and MV4-11 human acute myelomonocytic leukemia cells (Table 5). Cells were treated with the test compound and the concentration required for 50% growth inhibition (IC50) determined by sulfomodamine B (SRB) colorimetric assay.
# [5] = test system: HepG2 human hepatocellular carcinoma cells; assay: anti-proliferation, SRB colorimetric assay, HepG2; type: cell-based; conditions: concentration required for 50% growth inhibition, read-out: IC50 (μM, mean ± S.D.)
# Source text: HCT116 human colorectal carcinoma cells (Table 3), HepG2 human hepatocellular carcinoma cells (Table 4), and MV4-11 human acute myelomonocytic leukemia cells (Table 5).
# Chain of aurora B (Q96GD4 whole entry): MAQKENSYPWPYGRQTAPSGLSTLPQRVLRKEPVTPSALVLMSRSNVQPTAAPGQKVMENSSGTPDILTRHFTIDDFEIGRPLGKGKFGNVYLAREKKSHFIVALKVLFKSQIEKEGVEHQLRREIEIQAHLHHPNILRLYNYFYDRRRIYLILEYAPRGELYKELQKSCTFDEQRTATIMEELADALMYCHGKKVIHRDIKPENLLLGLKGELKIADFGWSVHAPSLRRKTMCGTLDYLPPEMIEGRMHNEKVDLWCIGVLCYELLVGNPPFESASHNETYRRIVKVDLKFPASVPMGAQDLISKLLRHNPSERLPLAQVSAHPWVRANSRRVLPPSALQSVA
SMILES,IC50 [1],IC50 [2],IC50 [3],IC50 [4],melting point,IC50 [5],inhibition at 1 µM [1],"inhibition at 1 µM ([2]; compound at 1.0 μM, mean values (n=2), read-out: percent inhibition of enzyme catalytic activity, FLT-3 (numbers in parentheses))"
O=C1Nc2cc(NC(=O)c3c[nH]cc(-c4ccccc4)c3=O)ccc2/C1=C/c1ccc[nH]1 [D127],38.8 nM,27.7 nM,0.49 ± 0.03 µM,7.18 nM,> 300 °C,–,–,–
"Cc1cc(C)c(/C=C2\C(=O)Nc3cc(NC(=O)c4c[nH]cc(-c5ccc(F)cc5)c4=O)ccc32)[nH]1 [D140, (Z)—N-(3-((3,5-dimethyl-1H-pyrrol-2-yl)methylene)-2-oxoindolin-6-yl)-5-(4-fluorophenyl)-4-oxo-1,4-dihydropyridine-3-carboxamide]",179 nM,86.6 nM,–,12.8 nM,> 300 °C,0.56 ± 0.02 µM,–,–
"Cc1[nH]c(/C=C2\C(=O)Nc3cc(NC(=O)c4c[nH]cc(-c5ccc(F)cc5)c4=O)ccc32)c(C)c1C(=O)N1CCN(C)CC1 [D149, (Z)—N-(3-((3,5-dimethyl-4-(4-methylpiperazine-1-carbonyl)-1H-pyrrol-2-yl)methylene)-2-oxoindolin-6-yl)-5-(4-fluorophenyl)-4-oxo-1,4-dihydropyridine-3-carboxamide]",70.5 nM,1.4 nM,0.55 ± 0.05 µM,0.05 nM,283 °C (dec.),0.65 ± 0.11 µM,–,–
"O=C(NC(=O)c1ccc(Cl)c(Cl)c1)Nc1ccc2c(c1)NC(=O)/C2=C\c1ccc[nH]1 [D26, (Z)—N-(3-((1H-pyrrol-2-yl)methylene)-2-oxoindolin-6-ylcarbamoyl)-3,4-dichlorobenzamide]",7.7 nM,> 1000 nM,–,1.13 nM,295 to 300 °C (dec.),0.63 ± 0.04 µM,–,–
"Cc1[nH]c(/C=C2\C(=O)Nc3cc(NC(=O)c4c[nH]cc(-c5ccc(F)cc5)c4=O)ccc32)c(C)c1CCC(=O)N1CCN(C)CC1 [D151, (Z)—N-(3-((3,5-dimethyl-4-(3-(4-methylpiperazin-1-yl)-3-oxopropyl)-1H-pyrrol-2-yl)methylene)-2-oxoindolin-6-yl)-5-(4-fluorophenyl)-4-oxo-1,4-dihydropyridine-3-carboxamide]",107 nM,4.8 nM,0.66 ± 0.07 µM,0.34 nM,250 °C,0.88 ± 0.13 µM,–,–
COc1ccc(C(=O)NC(=O)Nc2ccc3c(c2)NC(=O)/C3=C\c2ccc[nH]2)cc1 [D15],14.9 nM,334 nM,–,6.13 nM,–,0.96 ± 0.03 µM,–,–
"Cc1ccc(C(=O)NC(=O)Nc2ccc3c(c2)NC(=O)/C3=C\c2[nH]c(C)c(C(=O)O)c2C)cc1 [D39, (Z)-2,4-dimethyl-5-((6-(3-(4-methylbenzoyl)ureido)-2-oxoindolin-3-ylidene)-methyl)-1H-pyrrole-3-carboxylic acid]",2.5 nM,265 nM,0.77 ± 0.11 µM,7.21 nM,295 to 300 °C (dec.),0.63 ± 0.21 µM,–,–
"Cc1[nH]c(/C=C2\C(=O)Nc3cc(NC(=O)NC(=O)c4ccccc4F)ccc32)c(C)c1C(=O)O [D53, (Z)-5-((6-(3-(2-fluorobenzoyl)ureido)-2-oxoindolin-3-ylidene)methyl)-2,4-dimethyl-1H-pyrrole-3-carboxylic acid]",3.7 nM,508 nM,0.63 ± 0.08 µM,8.07 nM,264 to 269 °C (dec.),0.85 ± 0.11 µM,–,–
"Cc1[nH]c(/C=C2\C(=O)Nc3cc(NC(=O)NC(=O)c4ccc(Cl)c(C(F)(F)F)c4)ccc32)c(C)c1C(=O)O [D36, (Z)-5-((6-(3-(4-chloro-3-(trifluoromethyl)benzoyl)ureido)-2-oxoindolin-3-ylid-ene)methyl)-2,4-dimethyl-1H-pyrrol-3-carboxylic acid]",10.7 nM,51.6 nM,–,–,270 to 275 °C,0.12 ± 0.07 µM,–,–
"COc1ccc(C(=O)NC(=O)Nc2ccc3c(c2)/C(=C/c2ccc[nH]2)C(=O)N3)cc1 [D14, (Z)—N-(3-((1H-pyrrol-2-yl)methylene)-2-oxoindolin-5-ylcarbamoyl)-4-methoxybenzamide]",–,201 nM,0.73 ± 0.02 µM,0.07 nM,285 to 290 °C (dec.),0.64 ± 0.01 µM,39.3%,–
"Cc1[nH]c(/C=C2\C(=O)Nc3cc(NC(=O)c4c[nH]cc(-c5ccc(F)cc5)c4=O)ccc32)c(C)c1CC(=O)N1CCN(C)CC1 [D150, (Z)—N-(3-((3,5-dimethyl-4-(2-(4-methylpiperazin-1-yl)-2-oxoethyl)-1H-pyrrol-2-yl)methylene)-2-oxoindolin-6-yl)-5-(4-fluorophenyl)-4-oxo-1,4-dihydropyridine-3-carboxamide]",91.6 nM,10.3 nM,0.57 ± 0.04 µM,0.1 nM,> 300 °C,0.7 ± 0.07 µM,–,–
"O=C(NC(=O)c1ccc(C(F)(F)F)cc1)Nc1ccc2c(c1)NC(=O)/C2=C\c1ccc[nH]1 [D27, (Z)—N-(3-((1H-pyrrol-2-yl)methylene)-2-oxoindolin-6-ylcarbamoyl)-4-(trifluoromethyl)benzamide]",40.9 nM,> 1000 nM,–,–,> 300 °C,0.86 ± 0.02 µM,–,–
"O=C1Nc2cc(NC(=O)c3c[nH]cc(-c4ccc(F)cc4)c3=O)ccc2/C1=C/c1ccc[nH]1 [D129, (Z)—N-(3-((1H-pyrrol-2-yl)methylene)-2-oxoindolin-6-yl)-5-(4-fluorophenyl)-4-oxo-1,4-dihydropyridine-3-carboxamide]",128 nM,38.1 nM,0.45 ± 0.07 µM,1.83 nM,> 300 °C,–,–,–
"O=C(NC(=O)c1ccc(Cl)cc1)Nc1ccc2c(c1)NC(=O)/C2=C\c1ccc[nH]1 [D25, (Z)—N-(3-((1H-pyrrol-2-yl)methylene)-2-oxoindolin-6-ylcarbonamoyl)-4-chlorobenzamide]",6.5 nM,676 nM,–,6.14 nM,280 to 285 °C (dec.),0.94 ± 0.03 µM,–,–
"COc1ccc(C(=O)NC(=O)Nc2ccc3c(c2)NC(=O)/C3=C\c2[nH]c(C)c(C(=O)O)c2C)cc1 [D41, (Z)-5-((6-(3-(4-methoxybenzoyl)ureido)-2-oxoindolin-3-ylidene)-methyl)-2,4-di-methyl-1H-pyrrole-3-carboxylic acid]",1.9 nM,180 nM,0.48 ± 0.05 µM,–,–,0.73 ± 0.13 µM,–,–
"O=C(CC(=O)Nc1ccc2c(c1)NC(=O)/C2=C\c1ccc[nH]1)Nc1ccc(F)cc1 [D75, (Z)—N^1-(3-((1H-pyrrol-2-yl)methylene)-2-oxoindolin-6-yl)-N^3-(4-fluorophenyl)malonamide]",25 nM,–,0.69 ± 0.05 µM,–,–,–,–,–
"Cc1[nH]c(/C=C2\C(=O)Nc3cc(NC(=O)N4CCN(C5CC5)C4=O)ccc32)c(C)c1CC(=O)O [D97, (Z)-2-(5-((6-(3-cyclopropyl-2-oxoimidazolidine-1-carboxamido)-2-oxoindolin-3-ylidene)methyl)-2,4-dimethyl-1H-pyrrol-3-yl)acetic acid]",2.7 nM,113 nM,0.83 ± 0.04 µM,–,–,0.87 ± 0.05 µM,–,–
"COc1ccc(C(=O)NC(=O)Nc2cccc3c2NC(=O)/C3=C\c2ccc[nH]2)cc1 [D16, (Z)—N-(3-((1H-pyrrol-2-yl)methylene)-2-oxoindolin-7-ylcarbamoyl)-4-methoxybenzamide]",–,–,0.99 ± 0.08 µM,–,253 to 258 °C (dec.),0.84 ± 0.01 µM,7.3%,6.9%
